Tests used:
[1] = biological target: T1, Norepinephrine Transporter (NET) (Homo sapiens, UniProt P23975); test: Transporter, Norepinephrine (NET) radioligand binding (cat. 204410); conditions: for Ki: human recombinant MDCK cells, [125I] RTI-55, Ki by Cheng and Prusoff, read-out: Ki, displacement of radioligand from Norepinephrine Transporter binding sites
Description: (§1) The methods employed in this study have been adapted from the scientific literature to maximize reliability and reproducibility. Reference standards were run as an integral part of each assay to ensure the validity of the results obtained. Assays were performed under conditions as described below. Literature reference(s) for each assay are tabulated below and hereby incorporated by reference.
(§2) Where presented, IC50 values were determined by a non-linear, least squares regression analysis using Data Analysis ToolboX™ (MDL Information Systems, San Leandro, Calif., USA). Where inhibition constants (Ki) are presented, the Ki values were calculated using the equation of Cheng and Prusoff(Cheng, Y., Prusoff, W. H., Biochem. Pharmacol. 22:30993108, 1973) using the observed IC50 of the tested compound, the concentration of radioligand employed in the assay, and the historical values for the Kd of the ligand (obtained experimentally at MDS Pharma Services). Where presented, the Hill coefficient (nH), defining the slope of the competitive binding curve, was calculated using Data Analysis Toolbox™. […] Where IC50, Ki, and/or nH data are presented without Standard Error of the Mean (SEM), data are insufficient to be quantitative, and the values presented (Ki, IC50, nH) should be interpreted with caution.
(§3) Where presented, IC50 values were determined by a non-linear, least squares regression analysis using Data Analysis Toolbox™ (MDL Information Systems, San Leandro, Calif., USA). Where inhibition constants (Ki) are presented, the Ki values were calculated using the equation of Cheng and Prusoff (Cheng, Y., Prusoff, W. H., Biochem. Pharmacol. 22:3099–3108, 1973) using the observed IC50 of the tested compound, the concentration of radioligand employed in the assay, and the historical values for the KD of the ligand (obtained experimentally at MDS Pharma Sarvices.

other receptors = test: Radioligand binding assay panel, other receptors (FIGS. 32 and 33); parameters: species or system human, mouse, guinea pig, syrian hamster, rat; conditions: radioligand binding assays at 10 μM
Description: as §1

[2] = biological target: T2, Serotonin Transporter (SERT) (Homo sapiens, UniProt P31645); test: Transporter, Serotonin (5-Hydroxytryptamine) (SERT) radioligand binding (cat. 274020); conditions: for Ki: human recombinant HEK-293 cells, [125I] RTI-55, Ki by Cheng and Prusoff, read-out: Ki, displacement of radioligand from Serotonin Transporter binding sites
T2 sequence (P31645 whole entry): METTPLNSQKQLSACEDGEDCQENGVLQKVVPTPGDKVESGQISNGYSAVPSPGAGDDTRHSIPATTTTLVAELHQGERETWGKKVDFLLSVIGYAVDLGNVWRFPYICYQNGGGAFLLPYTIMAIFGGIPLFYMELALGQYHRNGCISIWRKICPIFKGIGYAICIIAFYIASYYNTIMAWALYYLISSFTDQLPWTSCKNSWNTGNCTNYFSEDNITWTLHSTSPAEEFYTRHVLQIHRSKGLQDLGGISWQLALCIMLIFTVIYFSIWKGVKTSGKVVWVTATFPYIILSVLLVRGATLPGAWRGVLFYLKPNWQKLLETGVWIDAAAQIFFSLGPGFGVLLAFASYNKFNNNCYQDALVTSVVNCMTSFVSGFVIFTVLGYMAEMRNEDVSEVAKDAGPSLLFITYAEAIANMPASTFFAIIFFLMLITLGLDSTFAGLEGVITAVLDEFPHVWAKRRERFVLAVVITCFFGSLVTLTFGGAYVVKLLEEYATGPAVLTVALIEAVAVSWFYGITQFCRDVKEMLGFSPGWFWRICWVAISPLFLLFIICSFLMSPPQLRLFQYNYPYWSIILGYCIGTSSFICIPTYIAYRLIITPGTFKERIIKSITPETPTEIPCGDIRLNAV
Description: as §1, §2, §3

Norepinephrine Uptake = Norepinephrine Uptake (Homo sapiens, UniProt P23975); test: Inhibition of cellular Norepinephrine Uptake (cat. 302000); type: cell-based; conditions: for IC50: cellular uptake, FIG. 61
Norepinephrine Uptake, sequence (P23975 whole entry): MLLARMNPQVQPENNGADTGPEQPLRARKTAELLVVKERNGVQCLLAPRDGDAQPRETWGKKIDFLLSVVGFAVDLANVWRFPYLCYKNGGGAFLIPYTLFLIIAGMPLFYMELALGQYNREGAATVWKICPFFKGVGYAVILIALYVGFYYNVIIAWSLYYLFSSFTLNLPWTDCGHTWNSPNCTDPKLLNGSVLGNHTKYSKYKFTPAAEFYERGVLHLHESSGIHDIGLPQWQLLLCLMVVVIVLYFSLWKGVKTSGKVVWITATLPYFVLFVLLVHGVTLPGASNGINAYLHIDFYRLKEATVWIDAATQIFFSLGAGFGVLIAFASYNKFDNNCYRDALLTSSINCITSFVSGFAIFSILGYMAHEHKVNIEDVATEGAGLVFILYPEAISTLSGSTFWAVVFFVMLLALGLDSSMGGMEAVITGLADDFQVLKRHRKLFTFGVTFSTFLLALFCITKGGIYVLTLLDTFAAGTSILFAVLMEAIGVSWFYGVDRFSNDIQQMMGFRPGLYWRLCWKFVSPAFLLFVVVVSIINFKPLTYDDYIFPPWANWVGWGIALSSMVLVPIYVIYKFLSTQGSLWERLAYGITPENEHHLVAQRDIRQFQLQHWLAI
Description: (§4) The methods employed have been adapted from the scientific literature to maximize reliability and reproducibility. Reference standards were run as an integral part of each assay to ensure the validity of the results obtained. Assays were performed under the conditions described below. The literature reference(s) for each assay are are listed below.
as §3

[3] = Cytotoxicity, fluorometric assay run with the uptake assays (cat. 302100, 364100); type: cell-based; conditions: at 10 μM
Text: • 118090. Crespi, C. L., Miller, V. P and Penman, B. W. (1997) Microtiter plate assays for inhibition of human, drug-metabolizing cytochromes P450. Anal Biochem 248(1): 188–190. • Gentest Technical Bulletin (Version 4.2: Revised 27 Sep. 2000) A high throughput method for measuring cytochrome P450 inhibition. Gentest Technical Bulletin (Version 4.2) Revised 27 Sep. 2000). • 204410. Galli, A., DeFelice, L., Duke, B.-J., Moore, K. Blakely, R. (1995) Sodium dependent norepinephrine induced currents in norephinephrine transporter transfected HEK293 cells blocked by cocaine and antidepressants. J. Exp. Biol. 198:2197–2212. • 212610. Eggerickx, D., Raspe, E. Bertrand, D., Vassart, G., Parmentier, M. (1992) Molecular cloning, functional expression and pharmacological characterization of a human bradykinin B2 receptor gene. Biochem Biophys Res Commun 187 (3): 1306–1313. • 214510. Schoemaker, H. and Langer, S. Z. (1985) [3H]Diltiazem binding to calcium channel antagonist recognition sites in rat cerebral cortex. Eur. J. Pharmacol. 111:273–277. • 274020. […] J. Biol. Chem. 269(10):7124–7130. • 302000. Galli, A., DeFelice, L. Duke, B.-J., and Blakely, R. (1995) Sodium dependent norephinephrine-induced currents in norepinephrine-transporter-transfected HEK-293 cells blocked by cocaine and antidepressants. J. Exp. Biol. 198:2197–2212. • 302100. Page, B., Page, M. and Noel, C. (1993) A new fluorometric assay for cytotoxicity measurements in vitro. […] 3:473–476, 1993. • 364000. […] J. Biol. Chem. […]:7124–7130. • 364100. Page, B., Page, M. and Noel, C. (1993) A new fluorometric assay for cytotoxicity measurements in vitro. Int. J. Oncology 3:473–476, 1993.

Serotonin Uptake = Serotonin Uptake (Homo sapiens, UniProt P31645); test: Inhibition of cellular Serotonin Uptake (cat. 364000); type: cell-based; conditions: for IC50: cellular uptake, FIG. 61
Serotonin Uptake, sequence (P31645 whole entry): as the sequence (P31645 whole entry) above
Description: as §4, §3

uptake of dopamine = uptake of dopamine (Homo sapiens, UniProt Q01959); conditions: cited from earlier work
uptake of dopamine, sequence (Q01959 whole entry): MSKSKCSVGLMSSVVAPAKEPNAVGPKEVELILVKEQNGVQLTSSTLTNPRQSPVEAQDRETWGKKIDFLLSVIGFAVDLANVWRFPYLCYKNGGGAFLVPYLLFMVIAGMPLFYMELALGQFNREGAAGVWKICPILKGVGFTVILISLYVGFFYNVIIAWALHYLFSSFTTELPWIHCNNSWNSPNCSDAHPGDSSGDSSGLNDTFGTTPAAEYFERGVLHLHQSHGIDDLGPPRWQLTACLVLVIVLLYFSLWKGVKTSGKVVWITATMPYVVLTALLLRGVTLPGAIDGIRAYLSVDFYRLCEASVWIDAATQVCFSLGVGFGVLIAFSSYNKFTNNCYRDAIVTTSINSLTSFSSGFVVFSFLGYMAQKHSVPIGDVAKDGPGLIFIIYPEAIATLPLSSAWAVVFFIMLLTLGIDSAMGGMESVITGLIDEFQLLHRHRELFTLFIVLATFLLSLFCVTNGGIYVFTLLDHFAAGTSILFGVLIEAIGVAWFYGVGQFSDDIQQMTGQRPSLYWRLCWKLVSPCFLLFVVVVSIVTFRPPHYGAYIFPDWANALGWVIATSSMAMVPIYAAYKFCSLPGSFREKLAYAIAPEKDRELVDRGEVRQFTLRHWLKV

[4] = test system: alpha or beta adrenergic, muscarinic, histaminergic, and dopaminergic receptors; conditions: cited from earlier work
beta adrenoceptors = conditions: after chronic administration; Briley et al. 1996; cited from earlier work
[5] = test system: norepinephrine (NE) and serotonin (5-HT) uptake; conditions: Viazzo et al. 1996; Deprez et al. 1998; cited from earlier work
[6] = biological target: T1, Norepinephrine Transporter (NET); conditions: radioligand [125I] RTI-55; Human recombinant MDCK cells; historical value (*); cited from earlier work
[7] = biological target: T2, Serotonin Transporter (SERT); conditions: radioligand [125I] RTI-55; Human recombinant HEK-293 cells; historical value (*); cited from earlier work

T1 sequence (P23975 whole entry): as the sequence (P23975 whole entry) above

Structure (SMILES)	Ki [1] [µM]	Ki [2] [µM]	IC50 (Norepinephrine Uptake) [µM]	cytotoxicity [3]	IC50 (Serotonin Uptake) [µM]	also measured
CCN(CC)C(=O)C1(c2ccc(O)cc2)CC1CN (racemic) [CS1814, racemic 2-Aminomethyl-1-(4-hydroxy-phenyl)-cyclopropanecarboxylic acid diethyl amide]	0.218	0.00673	0.0286	no cytotoxicity was observed	0.0217	IC50 ([1]; radioligand binding, FIG. 59, read-out: IC50 for inhibition of norepinephrine transporter): 0.22 µM; binding to other receptors (other receptors): generally does not bind well to other receptors; IC50 ([2]; radioligand binding, FIG. 59, read-out: IC50 for inhibition of serotonin transporter): 0.0127 µM; potency of inhibition of norepinephrine uptake compared to inhibition of serotonin uptake (Norepinephrine Uptake): approximately equal potency
CCN(CC)C(=O)[C@@]1(c2ccccc2)C[C@H]1CN (racemic) [Milnacipran, milnacipran]						effect on the uptake of dopamine (uptake of dopamine): does not affect the uptake of dopamine; affinity for alpha or beta adrenergic, muscarinic, histaminergic, and dopaminergic receptors [4]: no affinity; effect on the number of beta adrenoceptors in rat cortex (beta adrenoceptors): does not affect the number of beta adrenoceptors
CCN(CC)C(=O)[C@@]1(c2ccc(O)cc2)C[C@H]1CN [CS1713, 1S, 2R 2-Aminomethyl-1-(4-hydroxy-phenyl)-cyclopropanecarboxylic acid diethyl amide]	0.112	0.00388	0.0103	no cytotoxicity was observed	0.022	potency of inhibition of norepinephrine uptake compared to inhibition of serotonin uptake (Norepinephrine Uptake): approximately two-fold
CCN(CC)C(=O)[C@]1(c2ccc(O)cc2)C[C@@H]1CN.Cl [CS1714, 1R, 2S 2-Aminomethyl-1-(4-hydroxy-phenyl)-cyclopropanecarboxylic acid diethyl amide]	1.68	0.00815	0.0885	no cytotoxicity was observed	0.0403	potency of inhibition of serotonin uptake compared to inhibition of norepinephrine uptake (Serotonin Uptake): approximately two-fold
CCN(CC)C(=O)[C@@]1(c2ccccc2)C[C@H]1CN [F2695, (+)-1S,2R-milnacipran]						activity in inhibiting norepinephrine and serotonin reuptake compared with the racemic mixture [5]: roughly twice
CCN(CC)C(=O)[C@]1(c2ccccc2)C[C@@H]1CN [F2696, (−)-1R,2S-milnacipran]						activity in inhibiting norepinephrine and serotonin reuptake compared with the racemic mixture [5]: much less potent
COC(=O)[C@H]1[C@@H](c2ccc(I)cc2)C[C@@H]2CC[C@H]1N2C [[^125I] RTI-55]						Kd [6]: 0.024 µM; Kd [7]: 0.00017 µM

From US7038085B2, “Stereoisomers of p-hydroxy-milnacipran, and methods of use thereof” (Collegium Pharmaceutical, Inc., priority 2002, dated 2006)
